Read-outs that look alike come from different tables or passages of the source. One block for each molecule: values may come before it. Residues, ends and D or L forms follow the SMILES beside them.
Tests used:
NMDA receptor = NMDA receptor (Rattus norvegicus, UniProt P35439); assay: [^3H] MK-801 binding assay; details: for Emax: read-out: Efficacy (% Increase in [^3H] MK-801 Binding)
[1] = test system: MDCK (Madin-Darby Canine Kidney Cells); assay: in vitro; details: concentration 5 μM; for Papp (10^−6 cm/sec): HBSS pH 7.4
Description: Procedure. Permeability of test compounds was assessed using MDCK (Madin-Darby Canine Kidney Cells) using the below parameters. • Test concentration: 5 μM (n=3) • Buffer: HBSS pH 7.4 • Time points: 0, 15, 30, 60 and 90 min • Analysis: Parent compound monitoring using LC-MS/MS

[2] = Metabolic stability in liver microsomes, rat; format: in vitro ADME; details: Rat (M) microsomes, 1 μM
Description: (§1) Metabolic stability was assessed in liver microsomes as well as in hepatocytes with few compounds.
(§2) Procedure for microsomal stability: • Species: Rat and human • Test concentration: 1 μM (n=2) • Protein concentration: 0.125 mg/mL • Time points: 0, 5, 15, 30 and 60 minutes • Controls: Minus NADPH and buffer • Analysis: Parent compound monitoring LC-MS/MS (Peak area ratios)

[3] = Kinetic aqueous solubility (pION method); format: physicochemical; details: pH 7.4, conc. tested 200 μM with 1% DMSO, 16 h incubation
[4] = Metabolic stability in liver microsomes, human; format: in vitro ADME; details: Human (M) microsomes, 1 μM
Description: as §1, §2

floating behavior [5] = assay: Porsolt test procedure 2; format: in vivo, Sprague Dawley rats; details: single dose (0.3 mg/kg IV), 24 hrs post-dosing, FIG. 11C
[6] = Metabolic stability in hepatocytes, rat; format: in vitro ADME; details: Rat (H) hepatocytes, 10 μM
Description: as §1
(§3) Procedure for hepatocyte stability: • Stock preparation: DMSO • Buffer: Krebs Henseleit Buffer • Total Incubation volume: […] • Cell density: 1 million cells/mL • Test concentration: 10 μM with 0.5% DMSO (n=2) • Time points: 0 and 60 min • Analysis: LC-MS/MS

floating behavior [7] = assay: Porsolt test procedure 2; format: in vivo, Sprague Dawley rats; details: 1 hr post-dosing
Description: The antidepressant-like effects of test compounds were examined with the rat Porsolt test as described in Page et al. (1999) and Burgdorf et al. (2009). Male Sprague Dawley rats (2-3 month old) were used in this study. Animals were dosed with test compounds (0.3 mg/kg IV) or sterile saline vehicle (1 ml/kg IV tail vein) 1 hr before a single test session. […] Water was changed after every other animal. […] CM-6A, CM-7A, CM-8A, and CM-9A were tested in the Porsolt test. CM-5A was not tested in the Porsolt test.
Animals received a single 15 min Porsolt habituation session on the day before the first 5 min Porsolt test. N=6 per group. *P<0.05 Fisher's PLSD post hoc test vs. vehicle.

[8] = Metabolic stability in hepatocytes, human; format: in vitro ADME; details: Human (H) hepatocytes, 10 μM
Description: as §1, §3

[9] = test system: Schaffer collateral-evoked NMDA EPSCs in CA1 pyramidal neurons; assay: Long-term potentiation (LTP) assay procedure 2; format: cell-based, Sprague-Dawley rats; details: 1 μM, FIG. 8, P<0.05
Description: Assays were conducted as described in Zhang et al. (2008). Sprague-Dawley rats (12-18 days old; Taconic Farms) were deeply anesthetized with isoflurane and decapitated. Brains was removed rapidly, submerged in ice-cold artificial cerebrospinal fluid (ACSF, 2-4° C.), which contained (in mM): 124 NaCl, 4 KCl, 2 MgSO4, 2 CaC12, 1.25 NaH2PO4, 26 NaHCO3, 10 glucose; at pH 7.4, gassed continuously with 95% O2/5% CO2). Brains were hemisected, the frontal lobes cut off, and individual hemispheres glued using cyanoacrylate adhesive onto a stage immersed in ice-cold ACSF gassed continuously with 95% O2/5% CO2 during slicing. […] Bath application of test compounds (1 μM) was applied 30 min prior to application of Schaffer collateral stimulus trains to elicit LTP. LTP was induced by stimulation of Schaffer collateral axons with four high frequency theta burst stimulus trains of 10×100 Hz/5 pulse bursts each, applied at an inter-burst interval of 200 ms. Each train was 2 s in duration, and trains were applied 15 s apart.

[10] = single dose 0.3 mg/kg IV, FIG. 11A
[11] = single dose (0.3 mg/kg IV), FIG. 11B

Structure (SMILES): C[C@@H](O)[C@H](NC(=O)[C@@H]1CCCN1C(=O)[C@@H]1CCCN1C(=O)[C@@H](N)CO)C(N)=O [CM-1, (S)-N-((2S,3R)-1-amino-3-hydroxy-1-oxobutan-2-yl)-1-((S)-1-((S)-2-amino-3-hydroxypropanoyl)pyrrolidine-2-carbonyl)pyrrolidine-2-carboxamide] (H-SPPT-NH2)
EC50 (NMDA receptor): 0.005 nM

Structure (SMILES): C[C@@H](O)[C@H](N)C(=O)N1CCC[C@H]1C(=O)N1CCC[C@H]1C(=O)N[C@@H](CO)C(N)=O [CM-2, (S)-N-((S)-1-amino-3-hydroxy-1-oxopropan-2-yl)-1-((S)-1-((2S,3R)-2-amino-3-hydroxybutanoyl)pyrrolidine-2-carbonyl) pyrrolidine-2-carboxamide] (H-TPPS-NH2)
Efficacy (% Increase in [^3H] MK-801 Binding) (NMDA receptor; best-fit top value, 50 μM glutamate): 24%
EC50 (NMDA receptor; rat forebrain membranes, 50 μM glutamate, read-out: Potency (EC50)): 0.006 nM

Structure (SMILES): NC(=O)[C@H](CO)NC(=O)[C@@H]1CCCN1C(=O)[C@@H]1CCCN1C(=O)[C@@H](N)CO [CM-3, (S)-N-((S)-1-amino-3-hydroxy-1-oxopropan-2-yl)-1-((S)-1-((S)-2-amino-3-hydroxy-propanoyl)-pyrrolidine-2-carbonyl)-pyrrolidine-2-carboxamide] (H-SPPS-NH2)
EC50 (NMDA receptor): 0.016 nM

Structure (SMILES): Cc1ccc(C[C@@]2(C(=O)N[C@H](C(N)=O)[C@@H](C)O)CCCN2C(=O)[C@@H]2CCCN2C(=O)[C@@H](N)[C@@H](C)O)cc1 [CM-5A, (R)-N-((2S,3R)-1-amino-3-hydroxy-1-oxobutan-2-yl)-1-((S)-1-((2S,3R)-2-amino-3-hydroxybutanoyl)pyrrolidine-2-carbonyl)-2-(4-methylbenzyl) pyrrolidine-2-carboxamide]
Permeability classification [1]: Low (≦3 × 10^−6 cm/sec)
Recovery [1]: 100
% Remaining at 60 minutes [2]: 95%
Half-life [2]: >1 h
Stability Class [2]: Stable (% Remaining >90%)
Mean Solubility (N = 3) at pH [3]: >200
% Remaining at 60 minutes [4]: 86%
Half-life [4]: >1 h
Stability Class [4]: Moderate (% Remaining 70-90%)

Structure (SMILES): CC(O)C(N)C(=O)N1CCCC1C(=O)N1CCCC1(Cc1ccc(F)cc1)C(=O)NC(C(N)=O)C(C)O (stereo not drawn) [CM-6]
Emax (NMDA receptor): 12%

Structure (SMILES): C[C@@H](O)[C@H](N)C(=O)N1CCC[C@H]1C(=O)N1CCC[C@@]1(Cc1ccc(C(F)(F)F)cc1)C(=O)N[C@H](C(N)=O)[C@@H](C)O [CM-7A, (R)-N-((2S,3R)-1-amino-3-hydroxy-1-oxobutan-2-yl)-1-((S)-1-((2S,3R)-2-amino-3-hydroxybutanoyl)pyrrolidine-2-carbonyl)-2-(4-(trifluoromethyl)benzyl) pyrrolidine-2-carboxamide]
Permeability classification [1]: Low (≦3 × 10^−6 cm/sec)
Recovery [1]: 68
Papp (10^−6 cm/sec) [1]: 0.11 ± 0.0 10^−6 cm/sec
floating time in the Porsolt test (floating behavior [5]): produced an antidepressant-like effect
% Remaining at 60 minutes [6]: 76%
Half-life [6]: >1 h
Stability Class [6]: Moderate (% Remaining 70-90%)
floating time in the Porsolt test (floating behavior [7]; [10]): produced an antidepressant-like effect
floating time in the Porsolt test (floating behavior [7]; [11]): produced an antidepressant-like effect
% Remaining at 60 minutes [8]: 92%
Half-life [8]: >1 h
Stability Class [8]: Stable (% Remaining >90%)
long-term potentiation after high frequency stimulation (fEPSP slope) [9]: increased long-term potentiation

Structure (SMILES): CC(O)C(N)C(=O)N1CCCC1C(=O)N1CCCC1(Cc1ccc(C(F)(F)F)cc1)C(=O)NC(C(N)=O)C(C)O (stereo not drawn) [CM-7]
EC50 (NMDA receptor): 10.6 nM
Emax (NMDA receptor): 13%

Structure (SMILES): Cc1cccc(C[C@@]2(C(=O)N[C@H](C(N)=O)[C@@H](C)O)CCCN2C(=O)[C@@H]2CCCN2C(=O)[C@@H](N)[C@@H](C)O)c1 [CM-8A, (R)-N-((2S,3R)-1-amino-3-hydroxy-1-oxobutan-2-yl)-1-((S)-1-((2S,3R)-2-amino-3-hydroxybutanoyl)pyrrolidine-2-carbonyl)-2-(3-methylbenzyl) pyrrolidine-2-carboxamide]
Permeability classification [1]: Low (≦3 × 10^−6 cm/sec)
Recovery [1]: 83
Papp (10^−6 cm/sec) [1]: 0.14 ± 0.01 10^−6 cm/sec
% Remaining at 60 minutes [2]: 91%
Half-life [2]: >1 h
Stability Class [2]: Stable (% Remaining >90%)
Mean Solubility (N = 3) at pH [3]: >200
floating time in the Porsolt test (floating behavior [5]): produced an antidepressant-like effect
floating time in the Porsolt test (floating behavior [7]; [10]): produced an antidepressant-like effect
floating time in the Porsolt test (floating behavior [7]; [11]): produced an antidepressant-like effect
long-term potentiation after high frequency stimulation (fEPSP slope) [9]: increased long-term potentiation
% Remaining at 60 minutes [4]: 75%
Half-life [4]: >1 h
Stability Class [4]: Moderate (% Remaining 70-90%)

Structure (SMILES): Cc1cccc(CC2(C(=O)NC(C(N)=O)C(C)O)CCCN2C(=O)C2CCCN2C(=O)C(N)C(C)O)c1 (stereo not drawn) [CM-8]
EC50 (NMDA receptor): 0.006 nM
Emax (NMDA receptor): 16%

Structure (SMILES): C[C@@H](O)[C@H](N)C(=O)N1CCC[C@H]1C(=O)N1CCC[C@@]1(Cc1cccc(F)c1)C(=O)N[C@H](C(N)=O)[C@@H](C)O [CM-9A, (R)-N-((2S,3R)-1-amino-3-hydroxy-1-oxobutan-2-yl)-1-((S)-1-((2S,3R)-2-amino-3-hydroxybutanoyl)pyrrolidine-2-carbonyl)-2-(3-fluorobenzyl) pyrrolidine-2-carboxamide]
Permeability classification [1]: Low (≦3 × 10^−6 cm/sec)
Recovery [1]: 100
% Remaining at 60 minutes [2]: 100%
Half-life [2]: >1 h
Stability Class [2]: Stable (% Remaining >90%)
Mean Solubility (N = 3) at pH [3]: 148 ± 42
floating time in the Porsolt test (floating behavior [5]): produced an antidepressant-like effect
floating time in the Porsolt test (floating behavior [7]; [10]): produced an antidepressant-like effect
floating time in the Porsolt test (floating behavior [7]; [11]): produced an antidepressant-like effect
long-term potentiation after high frequency stimulation (fEPSP slope) [9]: increased long-term potentiation
% Remaining at 60 minutes [4]: 69%
Half-life [4]: >1 h
Stability Class [4]: Unstable (% Remaining <70%)

Structure (SMILES): CC(O)C(N)C(=O)N1CCCC1C(=O)N1CCCC1(Cc1cccc(F)c1)C(=O)NC(C(N)=O)C(C)O (stereo not drawn) [CM-9]
EC50 (NMDA receptor): 0.007 nM
Emax (NMDA receptor): 15%

Structure (SMILES): C[C@@H](O)[C@H](NC(=O)C1(Cc2ccccc2)CCCN1C(=O)[C@@H]1CCCN1C(=O)[C@@H](N)CO)C(N)=O (stereo partly drawn) [CM-10, N-((2S,3R)-1-amino-3-hydroxy-1-oxobutan-2-yl)-1-((S)-1-((S)-2-amino-3-hydroxypropanoyl)pyrrolidine-2-carbonyl)-2-benzylpyrrolidine-2-carboxamide]
Emax (NMDA receptor): 16%

Structure (SMILES): COc1ccc(CC2(C(=O)N[C@H](C(N)=O)[C@@H](C)O)CCCN2C(=O)[C@@H]2CCCN2C(=O)[C@@H](N)[C@@H](C)O)cc1 (stereo partly drawn) [CM-11]
EC50 (NMDA receptor): 0.013 nM
Emax (NMDA receptor): 9%

Structure (SMILES): CC(O)C(N)C(=O)N1CCCC1C(=O)N1CCCC1(Cc1cc(Br)cc(Br)c1)C(=O)NC(C(N)=O)C(C)O (stereo not drawn) [CM-12]
EC50 (NMDA receptor): 2.21 nM
Emax (NMDA receptor): 13%

Structure (SMILES): COc1cccc(CC2(C(=O)NC(C(N)=O)C(C)O)CCCN2C(=O)C2CCCN2C(=O)C(N)C(C)O)c1 (stereo not drawn) [CM-13]
Emax (NMDA receptor): 10%

Structure (SMILES): COc1cc(CC2(C(=O)NC(C(N)=O)C(C)O)CCCN2C(=O)C2CCCN2C(=O)C(N)C(C)O)cc(OC)c1OC (stereo not drawn) [CM-14]
EC50 (NMDA receptor): 0.443 nM
Emax (NMDA receptor): 8%

Mean Solubility (N = 3) at pH [3]: 2.6 ± 2.1
Structure (SMILES): CC/C(=C(/CC)c1ccc(O)cc1)c1ccc(O)cc1 [DES, reference compound]

Reference: US20150051262A1, “NMDA RECEPTOR MODULATORS AND USES THEREOF” (Northwestern University, priority 2011, published 2015)
